# Laboratory results from patent publication US12384776B2, “Compounds and uses thereof” (Foghorn Therapeutics Inc., priority 2019, dated 2025).
# Molecular target: Nanoluciferase-BRD9 fusion protein (3×FLAG-NLuc-BRD9) in SYO-1 cells (Homo sapiens (Human), UniProt Q9H8M2)
# Assay: SYO1 BRD9 NanoLuc degradation assay
# Assay type: cell-based
# Details: SYO-1 cells expressing 3×FLAG-NLuc-BRD9, 6 hours incubation, top dose 1 μM
# Protocol: Procedure: A stable SYO-1 cell line expressing 3×FLAG-NLuc-BRD9 was generated. On day 0 cells were seeded in 30 μL media into each well of 384-well cell culture plates. The seeding density was 8000 cells/well. On day 1, cells were treated with 30 nL DMSO or 30 nL of 3-fold serially DMSO-diluted compounds (10 points in duplicates with 1 μM as final top dose). Subsequently plates were incubated for 6 hours in a standard tissue culture incubator and equilibrated at room temperature for 15 minutes. Nanoluciferase activity was measured by adding 15 μL of freshly prepared Nano-Glo Luciferase Assay Reagent (Promega N1130), shaking the plates for 10 minutes and reading the bioluminescence using an EnVision reader.
# Results: The Inhibition % was calculated using the following formula: % Inhibition=100×(LumHC−LumSample)/(LumHC−LumLC). DMSO treated cells are employed as High Control (HC) and 1 μM of a known BRD9 degrader standard treated cells are employed as Low Control (LC).
# Nanoluciferase-BRD9 fusion protein (3×FLAG-NLuc-BRD9) in SYO-1 cells, sequence (Q9H8M2 whole entry, the tested form may be a part): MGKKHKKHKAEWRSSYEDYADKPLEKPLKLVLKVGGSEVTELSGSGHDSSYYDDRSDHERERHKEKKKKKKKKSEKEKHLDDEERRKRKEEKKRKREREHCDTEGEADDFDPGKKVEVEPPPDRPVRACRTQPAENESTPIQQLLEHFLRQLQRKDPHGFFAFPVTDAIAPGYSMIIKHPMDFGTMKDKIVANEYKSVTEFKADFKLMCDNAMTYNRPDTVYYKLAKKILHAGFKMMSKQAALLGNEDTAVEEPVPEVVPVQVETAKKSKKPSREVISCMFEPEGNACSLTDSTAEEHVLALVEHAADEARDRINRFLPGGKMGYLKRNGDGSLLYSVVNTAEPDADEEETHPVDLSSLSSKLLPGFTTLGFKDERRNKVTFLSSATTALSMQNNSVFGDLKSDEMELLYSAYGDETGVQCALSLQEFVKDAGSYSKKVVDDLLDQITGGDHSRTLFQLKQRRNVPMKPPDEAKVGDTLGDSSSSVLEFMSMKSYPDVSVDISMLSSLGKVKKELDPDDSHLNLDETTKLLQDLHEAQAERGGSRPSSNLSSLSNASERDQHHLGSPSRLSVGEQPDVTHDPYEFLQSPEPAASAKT
row,SMILES,IC50 [nM]
1,CNC(=O)N1CCc2c(-c3cc(OC)c(CN4CCN(CCN5CCN(c6ccc7c(c6)C(=O)N(C6CCC(=O)NC6=O)C7=O)CC5)CC4)c(OC)c3)cn(C)c(=O)c2C1 (stereo not shown) [Compound D139],< 10
2,CNC(=O)N1CCc2c(-c3cc(OC)c(CNC4CC5(C4)CN(c4ccc6c(c4)C(=O)N(C4CCC(=O)NC4=O)C6=O)C5)c(OC)c3)cn(C)c(=O)c2C1 (stereo not shown) [Compound D158],< 10
3,CNC(=O)N1CCc2c(-c3cc(OC)c(CN4CCN(CCC5CCN(c6ccc7c(c6)C(=O)N(C6CCC(=O)NC6=O)C7=O)CC5)C5CC54)c(OC)c3)cn(C)c(=O)c2C1 (stereo not shown) [Compound D96],< 10
4,CNC(=O)N1CCc2c(-c3cc(OC)c(CN4CCC(CN5CCN(c6ccc7c(c6)C(=O)N(C6CCC(=O)NC6=O)C7=O)CC5)C4)c(OC)c3)cn(C)c(=O)c2C1 (stereo not shown) [Compound D169],< 10
5,COc1cc(-c2cn(C)c(=O)c3c2CCN(C(=O)NCCN2CC4(CCN(c5ccc6c(c5)C(=O)N(C5CCC(=O)NC5=O)C6=O)C4)C2)C3)cc(OC)c1CN(C)C (stereo not shown) [Compound D211],100 to 1000
6,COc1cc(-c2cn(C)c(=O)c3c2CCN(C(=O)NCCN2CCC4(CCN4c4ccc5c(c4)C(=O)N(C4CCC(=O)NC4=O)C5=O)C2)C3)cc(OC)c1CN(C)C (stereo not shown) [Compound D185],100 to 1000
7,CNC(=O)N1CCc2c(-c3cc(OC)c(CN4CC(CN5CCN(c6ccc7c(c6)C(=O)N(C6CCC(=O)NC6=O)C7=O)CC5)C4)c(OC)c3)cn(C)c(=O)c2C1 (stereo not shown) [Compound D168],10 to 100
8,COc1cc(-c2cn(C)c(=O)c3c2CCN(C(=O)NC2CCC4CN(c5ccc6c(c5)C(=O)N(C5CCC(=O)NC5=O)C6=O)CC42)C3)cc(OC)c1CN(C)C (stereo not shown) [Compound D119],< 10
9,CNC(=O)N1CCc2c(-c3cc(OC)c(CN4CCC5(CC4)CN(C(=O)CCN4CCN(c6ccc7c(c6)C(=O)N(C6CCC(=O)NC6=O)C7=O)CC4)CCO5)c(OC)c3)cn(C)c(=O)c2C1 (stereo not shown) [Compound D175],100 to 1000
10,COc1cc(-c2cn(C)c(=O)c3c2CCN(C(=O)NC2CC4(C2)CN(CCCOc2ccc5c(c2)C(=O)N(C2CCC(=O)NC2=O)C5=O)C4)C3)cc(OC)c1CN(C)C (stereo not shown) [Compound D263],100 to 1000
11,CNC(=O)N1CCc2c(-c3cc(OC)c(CN4CC(C(C)N5CCC6(CC5)CN(c5ccc7c(c5)CN(C5CCC(=O)NC5=O)C7)C6)C4)c(OC)c3)cn(C)c(=O)c2C1 (stereo not shown) [Compound D51],< 10
12,COc1cc(-c2cn(C)c(=O)c3c2CCN(C(=O)NC2C[C@@H]4CN(CCCCN5CCN(c6ccc7c(c6)C(=O)N(C6CCC(=O)NC6=O)C7=O)CC5)C[C@H]24)C3)cc(OC)c1CN(C)C (stereo partly shown) [Compound D247],100 to 1000
13,COc1cc(-c2cn(C)c(=O)c3c2CCN(C(=O)NC2CC4(CCN(CCCOc5ccc6c(c5)C(=O)N(C5CCC(=O)NC5=O)C6=O)C4)C2)C3)cc(OC)c1CN(C)C (stereo not shown) [Compound D262],100 to 1000
14,CNC(=O)N1CCc2c(-c3cc(OC)c(CN4CCC5(CC4)CC(N4CCN(c6ccc7c(c6)C(=O)N(C6CCC(=O)NC6=O)C7=O)CC4)C5)c(OC)c3)cn(C)c(=O)c2C1 (stereo not shown) [Compound D255],< 10
15,CNC(=O)N1CCc2c(-c3cc(OC)c(CN4CCC(C(C)N5CCC6(CC5)CC(Oc5ccc7c(c5)C(=O)N(C5CCC(=O)NC5=O)C7=O)C6)CC4)c(OC)c3)cn(C)c(=O)c2C1 (stereo not shown) [Compound D128],< 10
16,COc1cc(-c2cn(C)c(=O)c3c2CCN(C(=O)NCC2CC4(CCN(CCCOc5ccc6c(c5)C(=O)N(C5CCC(=O)NC5=O)C6=O)CC4)C2)C3)cc(OC)c1CN(C)C (stereo not shown) [Compound D235],100 to 1000
17,CNC(=O)N1CCc2c(-c3cc(OC)c(CN4CCC(CCN5CCN(c6ccc7c(c6)C(=O)N(C6CCC(=O)NC6=O)C7=O)CC5)C(F)(F)C4)c(OC)c3)cn(C)c(=O)c2C1 (stereo not shown) [Compound D155],< 10
18,CNC(=O)N1CCc2c(-c3cc(OC)c(CN4CC(S(=O)(=O)NCCN5CCN(c6ccc7c(c6)C(=O)N(C6CCC(=O)NC6=O)C7=O)CC5)C4)c(OC)c3)cn(C)c(=O)c2C1 (stereo not shown) [Compound D287],100 to 1000
19,CNC(=O)N1CCc2c(-c3cc(OC)c(CN4CCN(C5CCN(c6ccc7c(c6)C(=O)N(C6CCC(=O)NC6=O)C7=O)CC5)CC4)c(OC)c3)cn(C)c(=O)c2C1 (stereo not shown) [Compound D170],< 10
20,CNC(=O)N1CCc2c(-c3cc(OC)c(CN4CC(CCN5CCN(c6ccc7c(c6)C(=O)N(C6CCC(=O)NC6=O)C7=O)CC5)C4)c(OC)c3)cn(C)c(=O)c2C1 (stereo not shown) [Compound D258],100 to 1000
21,COc1cc(-c2cn(C)c(=O)c3c2CCN(C(=O)NC2C[C@@H]4CN(CCOc5ccc6c(c5)C(=O)N(C5CCC(=O)NC5=O)C6=O)C[C@H]24)C3)cc(OC)c1CN(C)C (stereo partly shown) [Compound D249],≥ 1000

# The remaining lines, values ahead:
row,IC50 [nM],SMILES
1,10 to 100,COc1cc(-c2cn(C)c(=O)c3c2CCN(C(=O)NCCCCCCCCNc2cccc4nc(C)n(C5CCC(=O)NC5=O)c(=O)c24)C3)cc(OC)c1CN(C)C (stereo not shown) [Compound D291]
2,< 10,CNC(=O)N1CCc2c(-c3cc(Cl)c(CN4CCN(CCC5CCN(c6ccc7c(c6)CN(C6CCC(=O)NC6=O)C7=O)CC5)CC4)c(OC)c3)cn(C)c(=O)c2C1 (stereo not shown) [Compound D55]
3,10 to 100,CNC(=O)N1CCc2c(-c3cc(OC)c(CN4CCC5(CC4)CCN(C(C)(C)C#Cc4ccc6c(c4)C(=O)N(C4CCC(=O)NC4=O)C6=O)C5)c(OC)c3)cn(C)c(=O)c2C1 (stereo not shown) [Compound D137]
4,10 to 100,CNC(=O)N1CCc2c(-c3cc(OC)c(CN4CCC(CCN5CCN(c6ccc7nn(C8CCC(=O)NC8=O)c(=O)n7c6)CC5)CC4)c(OC)c3)cn(C)c(=O)c2C1 (stereo not shown) [Compound D57]
5,100 to 1000,COc1cc(-c2cn(C)c(=O)c3c2CCN(C(=O)NCCN2CC4(CCN4c4ccc5c(c4)C(=O)N(C4CCC(=O)NC4=O)C5=O)C2)C3)cc(OC)c1CN(C)C (stereo not shown) [Compound D192]
6,≥ 1000,COc1cc(-c2cn(C)c(=O)c3c2CCN(C(=O)NC2CC4(C2)CN(CCOc2ccc5c(c2)C(=O)N(C2CCC(=O)NC2=O)C5=O)C4)C3)cc(OC)c1CN(C)C (stereo not shown) [Compound D264]
7,10 to 100,CNC(=O)N1CCc2c(-c3cc(OC)c(CN4CC(C(=O)N5CC6(CCN(c7ccc8c(c7)C(=O)N(C7CCC(=O)NC7=O)C8=O)C6)C5)C4)c(OC)c3)cn(C)c(=O)c2C1 (stereo not shown) [Compound D144]
8,< 10,CNC(=O)N1CCc2c(-c3cc(OC)c(CN4CCN(CCC5CCN(c6ccc7c(c6)C(=O)N(C6CCC(=O)NC6=O)C7=O)CC5)CC4C(F)F)c(OC)c3)cn(C)c(=O)c2C1 (stereo not shown) [Compound D104]
9,10 to 100,COc1cc(-c2cn(C)c(=O)c3c2CCN(C(=O)NCCCN2CCC(OC4CCN(c5ccc6c(c5)C(=O)N(C5CCC(=O)NC5=O)C6=O)CC4)C2)C3)cc(OC)c1CN(C)C (stereo not shown) [Compound D225]

# Same assay, conditions: SYO-1 cells expressing 3×FLAG-NLuc-BRD9, 6 hours incubation, top dose 1 μM; read-out: SYO1 BRD9-NanoLuc degradation IC50
row,DC50 [nM],SMILES
1,100 to 1000,COc1cc(-c2cn(C)c(=O)c3c2CN(C)CC3)cc(OC)c1CN1CC(CN2CCC3(CC2)CN(c2ccc4c(c2)C(=O)N(C2CCC(=O)NC2=O)C4)C3)C1 (stereo not shown) [Compound D293]

# Same assay, conditions: SYO-1 cells, 6 hours, Table 6A
row,IC50 [nM],SMILES
1,> 100,"COc1cc(-c2cn(C)c(=O)c3c2CCN(C(=O)NCCCCCCCCNC(=O)COc2cccc4c2C(=O)N(C2CCC(=O)NC2=O)C4=O)C3)cc(OC)c1CN(C)C (stereo not shown) [Compound D10, 5-(4-((dimethylamino)methyl)-3,5-dimethoxyphenyl)-N-(8-(2-((2-(2,6-dioxopiperidin-3-yl)-1,3-dioxoisoindolin-4-yl)oxy)acetamido)octyl)-7-methyl-8-oxo-3,4,7,8-tetrahydro-2,7-naphthyridine-2 (1H)-carboxamide formic acid]"
2,> 10,"CNC(=O)N1CCc2c(-c3cc(OC)c(CN4CCC5(CC4)CN(C(=O)CCCCOc4cccc6c4C(=O)N(C4CCC(=O)NC4=O)C6=O)CCO5)c(OC)c3)cn(C)c(=O)c2C1 (stereo not shown) [Compound D4, 5-(4-[[4-(5-[[2-(2,6-dioxopiperidin-3-yl)-1,3-dioxoisoindol-4-yl]oxy]pentanoyl)-1-oxa-4,9-diazaspiro[5.5]undecan-9-yl]methyl]-3,5-dimethoxyphenyl)-N,7-dimethyl-8-oxo-3,4-dihydro-1H-2,7-naphthyridine-2-carboxamide formic acid]"

# Same assay, conditions: SYO-1 cells, 6 hours, Table 6C
row,SMILES,IC50 [nM]
1,COc1cc(-c2cn(C)c(=O)c3c2CCCN3)cc(OC)c1CN1CCC2(CC1)CN(c1ccc3c(c1)C(=O)N(C1CCC(=O)NC1=O)C3=O)C2 (stereo not shown) [Compound D351],≥ 10
2,CNC(=O)N1CCc2c(-c3cc(OC)c(CN4CCC(C(N5CCC6(CC5)CC(Oc5ccc7c(c5)C(=O)N(C5CCC(=O)NC5=O)C7=O)C6)C(F)(F)F)CC4)c(OC)c3)cn(C)c(=O)c2C1 (stereo not shown) [Compound D343],≥ 1000
3,COc1cc(-c2cn(C)c(=O)c3c2COC3)cc(OC)c1CN1CCC2(CC1)CN(c1ccc3c(c1)C(=O)N(C1CCC(=O)NC1=O)C3=O)C2 (stereo not shown) [Compound D358],< 10
4,CNC(=O)N1CCc2c(-c3cc(OC)c(CN4CCN(CCC5CCN(c6ccc7c(c6)C(=O)N(C6CCC(=O)NC6=O)C7)CC5)CC4(C)C)c(OC)c3)cn(C)c(=O)c2C1 (stereo not shown) [Compound D309],< 10

# The next lines start with the values.
row,IC50 [nM],SMILES
1,< 10,COc1cc(-c2cn(C)c(=O)c3c2CCC3)cc(OC)c1CN1CC(Oc2ccc3c(c2)C(=O)N(C2CCC(=O)NC2=O)C3=O)C1 (stereo not shown) [Compound D362]
2,< 10,CNC(=O)N1CCc2c(-c3cc(OC)c(CN4CCN(CCC5CCN(c6ccc7c(c6)C(=O)N(C6CCC(=O)NC6=O)C7)CC5(F)F)CC4)c(OC)c3)cn(C)c(=O)c2C1 (stereo not shown) [Compound D346]
3,< 10,COc1cc(-c2cn(C)c(=O)c3c2CCC3)cc(OC)c1CN1CCC(CN2CCC3(CC2)CN(c2ccc4c(c2)C(=O)N(C2CCC(=O)NC2=O)C4)C3)CC1 (stereo not shown) [Compound D353]
